Measurements reported in patent publication US12312319B2, “Isoxazoline compounds, their preparation methods and use” (METISA BIOTECHNOLOGY CO., LTD, priority 2019, dated 2025).

Experiments:
Type in all cases: in vivo
[1] = system: Leucania separata; assay: Insecticidal activity against Leucania separata, Airbrush spraying of corn leaf segments; settings: Mythimna separata, foliar, 72 h, 3rd instar larvae, 3 days after administration; for mortality at 1.25 µg/mL: 1.25 mg/L; for mortality at 2.5 µg/mL: 2.5 mg/L; for mortality at 5 µg/mL: 5 mg/L; for mortality at 10 µg/mL: 10 mg/L
Experimental: (§1) The compound to be determined was dissolved in a mixed solvent of acetone/methanol (1:1), followed by dilution with water containing 0.1% (wt) Tween 80 to a desired concentration.
(§2) The activities of the respective compounds against Leucania separata, Plutella xylostella, and Chilo suppressalis were determined by Airbrush spraying method.
(§3) The determination method was as follows: Corn leaves were cut into 2 cm long segments; the pressure of Airbrush spraying was 10 psi (about 0.7 kg/cm^2); both sides of each leaf segment were sprayed with 0.5 mL of the compound solution to be tested. After drying in the shade, ten 3rd instar larvae were inoculated for each treatment, and each treatment was replicated 3 times. After treatment, they were cultured in an observation room at a temperature of 25° C. and a relative humidity of 60-70%, and the number of surviving insects was examined and the mortality was calculated three days after administration.

[2] = system: Plutella xylostella; assay: Insecticidal activity against Plutella xylostella, Airbrush spraying of cabbage leaf discs; settings: foliar, 72 h, 3rd instar larvae, 3 days after administration; for mortality at 2.5 µg/mL: 2.5 mg/L; for mortality at 5 µg/mL: 5 mg/L; for mortality at 10 µg/mL: 10 mg/L
Experimental: as §1, §2
as §3, with “Cabbage” for “Corn”, “made” for “cut”, “into leaf discs with a diameter of” for “into”, “by using a hole puncher;” for “long segments;”, “disc” for “segment”

[3] = system: Chilo suppressalis; assay: Insecticidal activity against Chilo suppressalis, spraying of rice seedlings; settings: 72 h, 3rd instar larvae, 3 days after administration; for mortality at 0.625 µg/mL: 0.625 mg/L; for mortality at 2.5 µg/mL: 2.5 mg/L; for mortality at 10 µg/mL: 10 mg/L
Experimental: as §1, §2
The determination method was as follows: 1) Preparation of rice seedlings: rice plants were cultivated in a plastic cup with a diameter of 4.5 cm and a height of 4 cm in a thermostatic chamber (temperature 26-28° C., relative humidity 60-80%, illumination 16 hL: 8 hD), and when the rice plants were developed to have 4-5 leaves, strong seedlings with identical growth vigour were selected for chemical treatment, and each treatment was replicated 3 times. 2) Preparation of insects to be tested: Chilo suppressalis, 3rd instar larvae, continuous lab rearing. 3) Inoculation of insects by spraying rice plant stems: The whole rice seedlings were sprayed evenly by using the spraying method, with 15 mL of the compound solution for each treatment. Firstly, the blank control was treated, and then the above procedure was replicated according to the order of test concentration from low to high. After rice seedlings were spray-treated, they were placed in the shade to dry, and the stems about 5 cm from the stem bases were cut off to feed the insects to be tested. Glass culture dishes with a diameter of 90 mm were prepared; each dish was padded with a filter paper at the bottom and added with water to keep moisture; about 5 rice stems were put into each dish and inoculated with 10 larvae, and each culture dish was then sealed with a non-woven and cultured in a thermostatic chamber. The number of residual live insects was examined 3 days after administration.

[4] = system: Tetranychus cinnabarinus; assay: Acaricidal activity against Tetranychus cinnabarinus in greenhouse, bean seedling spraying; settings: adult mites, 3 days (72 hours) after treatment; for mortality at 0.625 µg/mL: 0.625 mg/L; for mortality at 1.25 µg/mL: 1.25 mg/L; for mortality at 2.5 µg/mL: 2.5 mg/L; for mortality at 5 µg/mL: 5 mg/L
Experimental: The compounds of the invention were determined for the acaricidal activity in greenhouse. The determination method was as follows:
A bean seedling with two true leaves was taken for inoculating 30-40 adult mites of Tetranychus cinnabarinus. After examining the cardinal number, the whole seedling was treated by spraying with a hand-held sprayer, each treatment being replicated 3 times, and then placed in a standard observation room. The number of surviving mites was examined after 72 hours, and the mortality was calculated.

Compound	mortality at 1.25 µg/mL [1] [%]	mortality at 2.5 µg/mL [1] [%]	mortality at 5 µg/mL [1] [%]	mortality at 10 µg/mL [1] [%]	mortality at 2.5 µg/mL [2] [%]	mortality at 5 µg/mL [2] [%]	mortality at 10 µg/mL [2] [%]	mortality at 0.625 µg/mL [3] [%]	mortality at 2.5 µg/mL [3] [%]	mortality at 10 µg/mL [3] [%]	mortality at 0.625 µg/mL [4] [%]	mortality at 1.25 µg/mL [4] [%]	mortality at 2.5 µg/mL [4] [%]	mortality at 5 µg/mL [4] [%]
CCN1OC[C@@H](N(C(=O)COC)C(=O)c2ccc(C3=NOC(c4cc(Cl)c(F)c(Cl)c4)(C(F)(F)F)C3)cc2C)C1=O (mixture of isomers) [Compound 121]	100	100	100	100	86.7	100	100	90	100	100	100	100	100	100
CCOCC(=O)N(C(=O)c1ccc(C2=NOC(c3cc(Cl)c(F)c(Cl)c3)(C(F)(F)F)C2)cc1C)[C@@H]1CON(CC)C1=O (mixture of isomers) [Compound 122]	100	100	100	100	70	100	100	93.3	100	100	100	100	100	100
CCN1OC[C@@H](N(C(=O)c2ccc(C3=NOC(c4cc(Cl)c(F)c(Cl)c4)(C(F)(F)F)C3)cc2C)C(=O)C2CC2)C1=O (mixture of isomers) [Compound 120]	100	100	100	100	83.3	100	100	96.7	100	100	100	100	100	100
CCN1OC[C@@H](N(C(=O)COC)C(=O)c2ccc(C3=NOC(c4cc(Cl)cc(Cl)c4)(C(F)(F)F)C3)cc2C)C1=O (mixture of isomers) [Compound 113]	100	100	100	100	66.7	90	100	86.7	100	100	100	100	100	100
CCOCC(=O)N(C(=O)c1ccc(C2=NOC(c3cc(Cl)cc(Cl)c3)(C(F)(F)F)C2)cc1C)[C@@H]1CON(CC)C1=O (mixture of isomers) [Compound 114]	100	100	100	100	60	86.7	100	83.3	100	100	100	100	100	100
CCN1OC[C@@H](N(C(=O)OC)C(=O)c2ccc(C3=NOC(c4cc(Cl)cc(Cl)c4)(C(F)(F)F)C3)cc2C)C1=O (stereo partly shown) [Comparative compound, reference compound]	0	0	13.3	73.3	0	30	76.7	0	0	16.7		20	73.3	100
CCN1OC[C@@H](N(C(C)=O)C(=O)c2ccc(C3=NOC(c4cc(Cl)cc(Cl)c4)(C(F)(F)F)C3)cc2C)C1=O (mixture of isomers) [Compound 109]	26.7	63.3	83.3	100		70	100	80	100	100	16.7	70	100	100
CCN1OC[C@@H](N(C(=O)c2ccc(C3=NOC(c4cc(Cl)cc(Cl)c4)(C(F)(F)F)C3)cc2C)C(=O)C2CC2)C1=O (mixture of isomers) [Compound 112]	80	96.7	100	100		70	100	96.7	100	100	96.7	100	100	100
